Experimental data from the supplement of paper PMC10307832.

Columns and labels:
Assay in all cases: relative viability (nuclei count vs DMSO), 5 days (fraction); higher = more cells survive
[1] = compound: CN(C)C[C@@H]1CCn2cc(c3ccccc32)C2=C(C(=O)NC2=O)c2cn(c3ccccc23)CCO1 [Ruboxistaurin] + CC(=O)Nc1cccc(-n2c(=O)n(C3CC3)c(=O)c3c(Nc4ccc(I)cc4F)n(C)c(=O)c(C)c32)c1 [Trametinib] (partner 0.02 µM)
Summary of the method: (§1)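 One day after seeding in 1536-well plates, lung cancer cell lines were dosed by pin tool. Dosing was either single-drug or a fixed anchor-drug dose plus five library-drug doses (not always all listed) in √10 steps. After 5 days, nuclei were stained in one fix-and-stain step and counted on 4× images, and relative viability is the nuclei count of treated wells over that of vehicle wells, given as the median of duplicate plates.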

Ruboxistaurin + AZD7762 = compound: CN(C)C[C@@H]1CCn2cc(c3ccccc32)C2=C(C(=O)NC2=O)c2cn(c3ccccc23)CCO1 [Ruboxistaurin] + NC(=O)Nc1cc(-c2cccc(F)c2)sc1C(=O)N[C@H]1CCCNC1 [AZD7762] (partner 0.2 µM)
Summary of the method: as §1

Ruboxistaurin + OSI-027 = compound: CN(C)C[C@@H]1CCn2cc(c3ccccc32)C2=C(C(=O)NC2=O)c2cn(c3ccccc23)CCO1 [Ruboxistaurin] + COc1cccc2cc(-c3nc([C@H]4CC[C@H](C(=O)O)CC4)n4ncnc(N)c34)[nH]c12 [OSI-027] (partner 0.5 µM)
Summary of the method: as §1

[2] = compound: CN(C)C[C@@H]1CCn2cc(c3ccccc32)C2=C(C(=O)NC2=O)c2cn(c3ccccc23)CCO1 [Ruboxistaurin] + Nc1nc2[nH]cc(CCc3ccc(C(=O)N[C@@H](CCC(=O)O)C(=O)O)cc3)c2c(=O)[nH]1 [Pemetrexed] (partner 0.2 µM)
Summary of the method: as §1

Ruboxistaurin + Olaparib = compound: CN(C)C[C@@H]1CCn2cc(c3ccccc32)C2=C(C(=O)NC2=O)c2cn(c3ccccc23)CCO1 [Ruboxistaurin] + O=C(c1cc(Cc2n[nH]c(=O)c3ccccc23)ccc1F)N1CCN(C(=O)C2CC2)CC1 [Olaparib] (partner 8 µM)
Summary of the method: as §1

[3] = compound: CN(C)C[C@@H]1CCn2cc(c3ccccc32)C2=C(C(=O)NC2=O)c2cn(c3ccccc23)CCO1 [Ruboxistaurin] + Nc1ncn([C@H]2C[C@H](O)[C@@H](CO)O2)c(=O)n1 [Decitabine] (partner 2 µM)
Summary of the method: as §1

[4] = compound: CN(C)C[C@@H]1CCn2cc(c3ccccc32)C2=C(C(=O)NC2=O)c2cn(c3ccccc23)CCO1 [Ruboxistaurin] + CC(=O)c1c(C)c2cnc(Nc3ccc(N4CCNCC4)cn3)nc2n(C2CCCC2)c1=O [Palbociclib] (partner 0.5 µM)
Summary of the method: as §1

[5] = compound: CN(C)C[C@@H]1CCn2cc(c3ccccc32)C2=C(C(=O)NC2=O)c2cn(c3ccccc23)CCO1 [Ruboxistaurin] + O=C(CCCCCCC(=O)Nc1ccccc1)NO [Vorinostat] (partner 1 µM)
Summary of the method: as §1

[6] = compound: CN(C)C[C@@H]1CCn2cc(c3ccccc32)C2=C(C(=O)NC2=O)c2cn(c3ccccc23)CCO1 [Ruboxistaurin] + Cc1cc(Nc2cc(N3CCN(C)CC3)nc(Sc3ccc(NC(=O)C4CC4)cc3)n2)n[nH]1 [Tozasertib] (partner 0.1 µM)
Summary of the method: as §1

Ruboxistaurin = compound: CN(C)C[C@@H]1CCn2cc(c3ccccc32)C2=C(C(=O)NC2=O)c2cn(c3ccccc23)CCO1 [Ruboxistaurin]
Summary of the method: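 Following overnight incubation at 37 °C, lung cancer cell lines in 1536-well plates were pinned with five library-drug doses (not always all listed) in √10 steps on vehicle-anchored plates. The cells then spent 5 days without medium change before a combined fix, permeabilisation and Hoechst stain, 4× imaging and MetaXpress nuclear counts. Viability is the treated-to-vehicle ratio of nuclei, taken as the median across plates. Only plates with control CV below 25% and at least one doubling passed.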

[7] = compound: CN(C)C[C@@H]1CCn2cc(c3ccccc32)C2=C(C(=O)NC2=O)c2cn(c3ccccc23)CCO1 [Ruboxistaurin] + CS(=O)(=O)N1CCN(Cc2cc3nc(-c4cccc5[nH]ncc45)nc(N4CCOCC4)c3s2)CC1 [Pictilisib] (partner 1 µM)
Summary of the method: as §1

[8] = compound: CN(C)C[C@@H]1CCn2cc(c3ccccc32)C2=C(C(=O)NC2=O)c2cn(c3ccccc23)CCO1 [Ruboxistaurin] + CS(=O)(=O)CCNCc1ccc(-c2ccc3ncnc(Nc4ccc(OCc5cccc(F)c5)c(Cl)c4)c3c2)o1 [Lapatinib] (partner 2 µM)
Summary of the method: as §1

[9] = compound: CN(C)C[C@@H]1CCn2cc(c3ccccc32)C2=C(C(=O)NC2=O)c2cn(c3ccccc23)CCO1 [Ruboxistaurin] + COc1cc2c(Oc3ccc(NC(=O)C4(C(=O)Nc5ccc(F)cc5)CC4)cc3F)ccnc2cc1OCCCN1CCOCC1 [Foretinib] (partner 0.25 µM)
Summary of the method: as §1

[10] = compound: CN(C)C[C@@H]1CCn2cc(c3ccccc32)C2=C(C(=O)NC2=O)c2cn(c3ccccc23)CCO1 [Ruboxistaurin] + CC(C)C[C@H](NC(=O)[C@H](Cc1ccccc1)NC(=O)c1cnccn1)B(O)O [Bortezomib] (partner 0.002 µM)
Summary of the method: as §1

[11] = compound: CN(C)C[C@@H]1CCn2cc(c3ccccc32)C2=C(C(=O)NC2=O)c2cn(c3ccccc23)CCO1 [Ruboxistaurin] + C[C@]1(O)C[C@@H](c2nc(-c3ccc4ccc(-c5ccccc5)nc4c3)c3c(N)nccn32)C1 [Linsitinib] (partner 1 µM)
Summary of the method: as §1

[12] = compound: CN(C)C[C@@H]1CCn2cc(c3ccccc32)C2=C(C(=O)NC2=O)c2cn(c3ccccc23)CCO1 [Ruboxistaurin] + CC1(C)CCC(c2ccc(Cl)cc2)=C(CN2CCN(c3ccc(C(=O)NS(=O)(=O)c4ccc(N[C@H](CCN5CCOCC5)CSc5ccccc5)c(S(=O)(=O)C(F)(F)F)c4)cc3)CC2)C1 [Navitoclax] (partner 0.5 µM)
Summary of the method: as §1

[13] = compound: CN(C)C[C@@H]1CCn2cc(c3ccccc32)C2=C(C(=O)NC2=O)c2cn(c3ccccc23)CCO1 [Ruboxistaurin] + Cc1nc(NC(=O)N2CCC[C@H]2C(N)=O)sc1-c1ccnc(C(C)(C)C(F)(F)F)c1 [Alpelisib] (partner 2 µM)
Summary of the method: as §1

[14] = compound: CN(C)C[C@@H]1CCn2cc(c3ccccc32)C2=C(C(=O)NC2=O)c2cn(c3ccccc23)CCO1 [Ruboxistaurin] + C[C@@H](Oc1cc(-c2cnn(C3CCNCC3)c2)cnc1N)c1c(Cl)ccc(F)c1Cl [Crizotinib] (partner 1 µM)
Summary of the method: as §1

For NCI-H1648, the relative viability ([1]; first compound 0.08 µM) was 0.643, the relative viability ([1]; first compound 0.8 µM) was 0.53 and the relative viability ([1]; first compound 2.53 µM) was 0.455. The relative viability ([1]; first compound 8 µM) was 0.681, the relative viability (Ruboxistaurin + AZD7762; first compound 0.08 µM) was 0.621 and the relative viability (Ruboxistaurin + AZD7762; first compound 0.8 µM) was 0.591. The relative viability (Ruboxistaurin + AZD7762; first compound 2.53 µM) was 0.835, the relative viability (Ruboxistaurin + AZD7762; first compound 8 µM) was 0.865 and the relative viability (Ruboxistaurin + OSI-027; first compound 0.08 µM) was 0.246. The relative viability (Ruboxistaurin + OSI-027; first compound 0.8 µM) was 0.278, the relative viability (Ruboxistaurin + OSI-027; first compound 2.53 µM) was 0.291 and the relative viability (Ruboxistaurin + OSI-027; first compound 8 µM) was 0.274. The relative viability ([2]; first compound 0.08 µM) was 0.699, the relative viability ([2]; first compound 0.8 µM) was 0.717 and the relative viability ([2]; first compound 2.53 µM) was 0.612. For the same cell line, the relative viability ([2]; first compound 8 µM) was 0.894, the relative viability (Ruboxistaurin + Olaparib; first compound 0.08 µM) was 1.33 and the relative viability (Ruboxistaurin + Olaparib; first compound 0.8 µM) was 0.64. It also gave a relative viability (Ruboxistaurin + Olaparib; first compound 2.53 µM) of 0.797, a relative viability (Ruboxistaurin + Olaparib; first compound 8 µM) of 1.22 and a relative viability ([3]; first compound 0.08 µM) of 0.514. For the same cell line, the relative viability ([3]; first compound 0.8 µM) was 0.501, the relative viability ([3]; first compound 2.53 µM) was 0.44 and the relative viability ([3]; first compound 8 µM) was 0.536. It also gave a relative viability ([4]; first compound 0.08 µM) of 0.248, a relative viability ([4]; first compound 0.8 µM) of 0.254 and a relative viability ([4]; first compound 2.53 µM) of 0.285. It also gave a relative viability ([4]; first compound 8 µM) of 0.247, a relative viability ([5]; first compound 0.08 µM) of 0.622 and a relative viability ([5]; first compound 0.8 µM) of 0.433. It also gave a relative viability ([5]; first compound 2.53 µM) of 0.425, a relative viability ([5]; first compound 8 µM) of 0.634 and a relative viability ([6]; first compound 0.08 µM) of 0.439. The relative viability ([6]; first compound 0.8 µM) was 0.438, the relative viability ([6]; first compound 2.53 µM) was 0.482 and the relative viability ([6]; first compound 8 µM) was 0.792. It also gave a relative viability (Ruboxistaurin; 0.08 µM) of 0.894, a relative viability (Ruboxistaurin; 0.8 µM) of 0.966 and a relative viability (Ruboxistaurin; 2.53 µM) of 1.11. It also gave a relative viability (Ruboxistaurin; 8 µM) of 1.15.
In the case of EBC-1, the relative viability ([7]; first compound 0.08 µM) is reported as 0.372, the relative viability ([7]; first compound 0.8 µM) is reported as 0.278 and the relative viability ([7]; first compound 2.53 µM) is reported as 0.296. It also gave a relative viability ([7]; first compound 8 µM) of 0.215, a relative viability ([8]; first compound 0.08 µM) of 0.215 and a relative viability ([8]; first compound 0.8 µM) of 0.216. The relative viability ([8]; first compound 2.53 µM) was 0.2, the relative viability ([8]; first compound 8 µM) was 0.201 and the relative viability ([9]; first compound 0.08 µM) was 0.102. For the same cell line, the relative viability ([9]; first compound 0.8 µM) was 0.118, the relative viability ([9]; first compound 2.53 µM) was 0.121 and the relative viability ([9]; first compound 8 µM) was 0.102. The relative viability ([10]; first compound 0.08 µM) was 0.587, the relative viability ([10]; first compound 0.8 µM) was 0.5 and the relative viability ([10]; first compound 2.53 µM) was 0.437. It also gave a relative viability ([10]; first compound 8 µM) of 0.454, a relative viability ([11]; first compound 0.08 µM) of 1.02 and a relative viability ([11]; first compound 0.8 µM) of 0.691. The relative viability ([11]; first compound 2.53 µM) was 0.89, the relative viability ([11]; first compound 8 µM) was 1.04 and the relative viability (Ruboxistaurin + Olaparib; first compound 0.08 µM) was 0.763. For the same cell line, the relative viability (Ruboxistaurin + Olaparib; first compound 0.8 µM) was 0.558, the relative viability (Ruboxistaurin + Olaparib; first compound 2.53 µM) was 0.663 and the relative viability (Ruboxistaurin + Olaparib; first compound 8 µM) was 0.447. It also gave a relative viability ([12]; first compound 0.08 µM) of 0.527, a relative viability ([12]; first compound 0.8 µM) of 0.308 and a relative viability ([12]; first compound 2.53 µM) of 0.381. For the same cell line, the relative viability ([12]; first compound 8 µM) was 0.358, the relative viability ([13]; first compound 0.08 µM) was 0.82 and the relative viability ([13]; first compound 0.8 µM) was 0.692. The relative viability ([13]; first compound 2.53 µM) was 0.741, the relative viability ([13]; first compound 8 µM) was 0.706 and the relative viability ([14]; first compound 0.08 µM) was 0.19. For the same cell line, the relative viability ([14]; first compound 0.8 µM) was 0.198, the relative viability ([14]; first compound 2.53 µM) was 0.17 and the relative viability ([14]; first compound 8 µM) was 0.167. It also gave a relative viability (Ruboxistaurin; 0.08 µM) of 1.13, a relative viability (Ruboxistaurin; 0.8 µM) of 0.96 and a relative viability (Ruboxistaurin; 2.53 µM) of 0.97. For the same cell line, the relative viability (Ruboxistaurin; 8 µM) was 0.932.
